Laboratory results: publication PMC9516332 (Frontiers in Oncology, 2022)
Like-named read-outs stand apart in the source and are kept apart here.

System: 134 cancer cell lines
Test: Cell viability assay (ATPlite, 72 hours), IC50 on cancer cell line panel

IC50 (HEC-6, read-out: IC50 in cell proliferation assay, HEC-6 cell line (EGFR p.A289V)): > 31600 nM | IC50 (Homo sapiens, 769-P, read-out: IC50 in cell proliferation assay, cell line 769-P): 665 nM | IC50 (Homo sapiens, 786-0, read-out: IC50 in cell proliferation assay, cell line 786-O): > 31600 nM | IC50 (Homo sapiens, A 172, read-out: IC50 in cell proliferation assay, cell line A-172): 25300 nM | IC50 (Homo sapiens, A204, read-out: IC50 in cell proliferation assay, cell line A-204): > 31600 nM | IC50 (Homo sapiens, A498, read-out: IC50 in cell proliferation assay, cell line A-498): 137 nM | IC50 (Homo sapiens, A549, read-out: IC50 in cell proliferation assay, cell line A-549): 132 nM | IC50 (Homo sapiens, A704, read-out: IC50 in cell proliferation assay, cell line A-704): > 31600 nM | IC50 (Homo sapiens, A-375, read-out: IC50 in cell proliferation assay, cell line A-375 (BRAF p.V600E)): 145 nM | IC50 (Homo sapiens, A-427, read-out: IC50 in cell proliferation assay, cell line A-427): 1340 nM | IC50 (Homo sapiens, ACHN, read-out: IC50 in cell proliferation assay, cell line ACHN): 14400 nM | IC50 (Homo sapiens, AN3-CA, read-out: IC50 in cell proliferation assay, cell line AN3-CA (FGFR2 p.N549K)): 2330 nM | IC50 (Homo sapiens, ASPC1, read-out: IC50 in cell proliferation assay, cell line AsPC-1): 210 nM | IC50 (Homo sapiens, AU565, read-out: IC50 in cell proliferation assay, cell line AU565 (ERBB2 amplification)): > 31600 nM | IC50 (Homo sapiens, BT-20, read-out: IC50 in cell proliferation assay, cell line BT-20): 9260 nM | IC50 (Homo sapiens, BT-474, read-out: IC50 in cell proliferation assay, cell line BT-474 (ERBB2 amplification)): > 31600 nM | IC50 (Homo sapiens, BT-549, read-out: IC50 in cell proliferation assay, cell line BT-549): > 31600 nM | IC50 (Homo sapiens, BXPC-3, read-out: IC50 in cell proliferation assay, cell line BxPC-3): 472 nM | IC50 (Homo sapiens, C-33-A, read-out: IC50 in cell proliferation assay, cell line C-33 A): 2.72 nM | IC50 (Homo sapiens, CAL-27, read-out: IC50 in cell proliferation assay, cell line CAL-27): 61 nM | IC50 (Homo sapiens, CCF-STTG1, read-out: IC50 in cell proliferation assay, cell line CCF-STTG1): > 31600 nM | IC50 (Homo sapiens, CCRF-CEM, read-out: IC50 in cell proliferation assay, cell line CCRF-CEM): > 31600 nM | IC50 (Homo sapiens, COLO 205, read-out: IC50 in cell proliferation assay, cell line COLO 205 (BRAF p.V600E)): 38 nM | IC50 (Homo sapiens, COLO-829, read-out: IC50 in cell proliferation assay, cell line COLO 829 (BRAF p.V600E)): 117 nM | IC50 (Homo sapiens, DLD-1, read-out: IC50 in cell proliferation assay, cell line DLD-1): 21400 nM | IC50 (Homo sapiens, DU-4475, read-out: IC50 in cell proliferation assay, cell line DU4475 (BRAF p.V600E)): 88 nM | IC50 (Homo sapiens, Daoy, read-out: IC50 in cell proliferation assay, cell line Daoy): > 31600 nM | IC50 (Homo sapiens, DoTc2-4510, read-out: IC50 in cell proliferation assay, cell line DoTc2 4510): 32 nM | IC50 (Homo sapiens, EOL1, read-out: IC50 in cell proliferation assay, cell line EoL-1 (FIP1L1-PDGFRA)): 92 nM | IC50 (Homo sapiens, FaDu, read-out: IC50 in cell proliferation assay, cell line FaDu): 73 nM | IC50 (Homo sapiens, G-361, read-out: IC50 in cell proliferation assay, cell line G-361 (BRAF p.V600E)): 225 nM | IC50 (Homo sapiens, HCC827, read-out: IC50 in cell proliferation assay, cell line HCC827 (EGFR exon19del)): 9710 nM | IC50 (Homo sapiens, HCC4006, read-out: IC50 in cell proliferation assay, cell line HCC4006 (EGFR exon19del)): 26800 nM | IC50 (Homo sapiens, HCT-15, read-out: IC50 in cell proliferation assay, cell line HCT 15): > 31600 nM | IC50 (Homo sapiens, HCT-116, read-out: IC50 in cell proliferation assay, cell line HCT 116): 2.26 nM | IC50 (Homo sapiens, HEC-1, read-out: IC50 in cell proliferation assay, HEC-1 cell line): > 31600 nM | IC50 (Homo sapiens, HEC-1B, read-out: IC50 in cell proliferation assay, HEC-1-B cell line (EGFR p.A864V)): 27 nM | IC50 (Homo sapiens, HL-60, read-out: IC50 in cell proliferation assay, HL-60 cell line): 13 nM | IC50 (Homo sapiens, HT, read-out: IC50 in cell proliferation assay, HT cell line): 14800 nM | IC50 (Homo sapiens, HT-1080, read-out: IC50 in cell proliferation assay, HT-1080 cell line): 132 nM | IC50 (Homo sapiens, Hs746T, read-out: IC50 in cell proliferation assay, Hs 746.T cell line (MET exon14skip + amplification)): 19400 nM | IC50 (Homo sapiens, Hs-578T, read-out: IC50 in cell proliferation assay, Hs 578T cell line): 78 nM | IC50 (Homo sapiens, HuTu80, read-out: IC50 in cell proliferation assay, HuTu 80 cell line): 413 nM | IC50 (Homo sapiens, J82, read-out: IC50 in cell proliferation assay, J82 cell line): 265 nM | IC50 (Homo sapiens, Jurkat E6.1, read-out: IC50 in cell proliferation assay, Jurkat E6.1 cell line): > 31600 nM | IC50 (Homo sapiens, K562, read-out: IC50 in cell proliferation assay, K-562 cell line): 241 nM | IC50 (Homo sapiens, KATO III, read-out: IC50 in cell proliferation assay, KATO III cell line (FGFR2 amplification)): 16500 nM | IC50 (Homo sapiens, KG-1, read-out: IC50 in cell proliferation assay, KG-1 cell line (FGFR1OP2-FGFR1)): 10 nM | IC50 (Homo sapiens, KLE, read-out: IC50 in cell proliferation assay, KLE cell line): > 31600 nM | IC50 (Homo sapiens, KMS-11, read-out: IC50 in cell proliferation assay, KMS-11 cell line (FGFR3 p.Y373C)): > 31600 nM | IC50 (Homo sapiens, KU812, read-out: IC50 in cell proliferation assay, Ku812 cell line): 73 nM | IC50 (Homo sapiens, Kasumi 1, read-out: IC50 in cell proliferation assay, Kasumi-1 cell line (KIT p.N822K)): 345 nM | IC50 (Homo sapiens, LC-2-ad, read-out: IC50 in cell proliferation assay, LC-2/ad cell line (CCDC6-RET)): 31000 nM | IC50 (Homo sapiens, LNCaP-Clone-FGC, read-out: IC50 in cell proliferation assay, LNCaP clone FGC cell line): > 31600 nM | IC50 (Homo sapiens, LS174T, read-out: IC50 in cell proliferation assay, LS174T cell line): 177 nM | IC50 (Homo sapiens, LS-411N, read-out: IC50 in cell proliferation assay, LS411N cell line (BRAF p.V600E)): 75 nM | IC50 (Homo sapiens, LoVo, read-out: IC50 in cell proliferation assay, LoVo cell line): 34 nM | IC50 (Homo sapiens, MCF7, read-out: IC50 in cell proliferation assay, MCF-7 cell line): > 31600 nM | IC50 (Homo sapiens, MDA-MB-231, read-out: IC50 in cell proliferation assay, MDA-MB-231 cell line): 1000 nM | IC50 (Homo sapiens, MDA-MB-453, read-out: IC50 in cell proliferation assay, MDA-MB-453 cell line): 9170 nM | IC50 (Homo sapiens, MDA-MB-468, read-out: IC50 in cell proliferation assay, MDA-MB-468 cell line): > 31600 nM | IC50 (Homo sapiens, MG-63, read-out: IC50 in cell proliferation assay, MG-63 cell line): 6090 nM | IC50 (Homo sapiens, MIA PaCa-2, read-out: IC50 in cell proliferation assay, MIA PaCa-2 cell line): 221 nM | IC50 (Homo sapiens, MKN-45, read-out: IC50 in cell proliferation assay, MKN45 cell line (MET amplification)): 2680 nM | IC50 (Homo sapiens, MOLM-13, read-out: IC50 in cell proliferation assay, MOLM-13 cell line (FLT3 ITD)): 822 nM | IC50 (Homo sapiens, MOLT-4, read-out: IC50 in cell proliferation assay, MOLT-4 cell line): > 31600 nM | IC50 (Homo sapiens, MV4-11, read-out: IC50 in cell proliferation assay, MV4-11 cell line (FLT3 ITD)): 178 nM
Compound: Cn1cnc2c(F)c(Nc3ccc(Br)cc3Cl)c(C(=O)NOCCO)cc21 [selumetinib]
